2 molecules from ChEMBL document CHEMBL1159259, “A bioactive tetraprenylphenol from Lactarius lignyotus” (1995) can be followed below.

Holding throughout (type): functional
Common to all, as to set-up: scale not given: the % may be the effect or the level left

Assay [1] concerns HL-60. Briefly: Inhibition of RNA synthesis in human HL60 cells assessed as [3H]uridine incorporation at 50 ug/ml after 45 mins by liquid scintillation counting.
For assay [2], the system named is HL-60. Nature of the assay: Inhibition of protein synthesis in human HL60 cells assessed as [3H]leucine incorporation at 50 ug/ml after 45 mins by liquid scintillation counting.
Assay [3] has as its system HL-60. Briefly: Inhibition of protein synthesis in human HL60 cells assessed as [3H]leucine incorporation at 10.4 ug/ml after 45 mins by liquid scintillation counting.
The subject of assay [4] is HeLa S3. Briefly: Inhibition of DNA synthesis in human HeLaS3 cells assessed as [3H]thymidine incorporation at 25 ug/ml after 45 mins by liquid scintillation counting. For orientation: Incorporation of labelled thymidine or its analogues reports DNA synthesis.
Assay [5] relates to HeLa S3. Nature of the assay: Inhibition of protein synthesis in human HeLaS3 cells assessed as [3H]leucine incorporation at 75 ug/ml after 45 mins by liquid scintillation counting.
The test system of assay [6] is HeLa S3. Briefly: Inhibition of RNA synthesis in human HeLaS3 cells assessed as [3H]uridine incorporation at 75 ug/ml after 45 mins by liquid scintillation counting.
Assay [7] concerns HL-60. Briefly: Inhibition of protein synthesis in human HL60 cells assessed as [3H]leucine incorporation at 25 ug/ml after 45 mins by liquid scintillation counting.
Assay [8] relates to HL-60. Nature of the assay: Inhibition of DNA synthesis in human HL60 cells assessed as [3H]thymidine incorporation at 75 ug/ml after 45 mins by liquid scintillation counting.
Assay [9] deals with HeLa S3. Briefly: Inhibition of DNA synthesis in human HeLaS3 cells assessed as [3H]thymidine incorporation at 75 ug/ml after 45 mins by liquid scintillation counting.
The subject of assay [10] is HeLa S3. Nature of the assay: Inhibition of DNA synthesis in human HeLaS3 cells assessed as [3H]thymidine incorporation at 10.4 ug/ml after 45 mins by liquid scintillation counting.
Assay [11] deals with HeLa S3. Briefly: Inhibition of RNA synthesis in human HeLaS3 cells assessed as [3H]uridine incorporation at 10.4 ug/ml after 45 mins by liquid scintillation counting.
In assay [12] the test system is HL-60. Briefly: Inhibition of protein synthesis in human HL60 cells assessed as [3H]leucine incorporation at 75 ug/ml after 45 mins by liquid scintillation counting.
Assay [13] has as its system HL-60. Briefly: Inhibition of RNA synthesis in human HL60 cells assessed as [3H]uridine incorporation at 25 ug/ml after 45 mins by liquid scintillation counting.
The test system of assay [14] is HeLa S3. Nature of the assay: Inhibition of protein synthesis in human HeLaS3 cells assessed as [3H]leucine incorporation at 50 ug/ml after 45 mins by liquid scintillation counting.
Assay [15] concerns HL-60. Briefly: Inhibition of DNA synthesis in human HL60 cells assessed as [3H]thymidine incorporation at 25 ug/ml after 45 mins by liquid scintillation counting.
For assay [16], the system named is HeLa S3. Nature of the assay: Inhibition of DNA synthesis in human HeLaS3 cells assessed as [3H]thymidine incorporation at 50 ug/ml after 45 mins by liquid scintillation counting.
For assay [17], the system named is HeLa S3. Nature of the assay: Inhibition of RNA synthesis in human HeLaS3 cells assessed as [3H]uridine incorporation at 25 ug/ml after 45 mins by liquid scintillation counting.
Assay [18] relates to HeLa S3. Briefly: Inhibition of protein synthesis in human HeLaS3 cells assessed as [3H]leucine incorporation at 25 ug/ml after 45 mins by liquid scintillation counting.
The subject of assay [19] is HL-60. Nature of the assay: Inhibition of DNA synthesis in human HL60 cells assessed as [3H]thymidine incorporation at 10.4 ug/ml after 45 mins by liquid scintillation counting.
The subject of assay [20] is HeLa S3. Nature of the assay: Inhibition of protein synthesis in human HeLaS3 cells assessed as [3H]leucine incorporation at 10.4 ug/ml after 45 mins by liquid scintillation counting.
In assay [21] the test system is HL-60. Nature of the assay: Inhibition of RNA synthesis in human HL60 cells assessed as [3H]uridine incorporation at 75 ug/ml after 45 mins by liquid scintillation counting.
Assay [22] relates to HL-60. Nature of the assay: Inhibition of DNA synthesis in human HL60 cells assessed as [3H]thymidine incorporation at 50 ug/ml after 45 mins by liquid scintillation counting.
In assay [23] the test system is HL-60. Briefly: Inhibition of RNA synthesis in human HL60 cells assessed as [3H]uridine incorporation at 10.4 ug/ml after 45 mins by liquid scintillation counting.
Assay [24] concerns HeLa S3. Briefly: Inhibition of RNA synthesis in human HeLaS3 cells assessed as [3H]uridine incorporation at 50 ug/ml after 45 mins by liquid scintillation counting.

Structures are written as SMILES.

Turning to `COc1ccc(O)c(CC=C(C)C)c1`, the Activity in assay [1] was found to be 55%; in assay [2], 35%; in [3], 49%; in assay [4], 59%; in assay [5] it was 37%; in [6], 90%. In addition, the Activity in assay [7] amounted to 38%; in [8] it was 1.5%; in assay [9], 31%; in [10], 100%; in assay [11], 97%; in assay [12], 32%. The Activity in assay [13] came out at 50%; in assay [14] it was 38%; in [15] it was 32%; in assay [16], 70%; in [17], 86%; in [18], 43%. Besides, the Activity in assay [19] amounted to 64%; in assay [20], 96%; in [21] it was 38%; in assay [22], 14%; in assay [23], 98%; in [24] it was 91%.
Take `CC(C)=CCC/C(C)=C/CC/C(C)=C/CC/C(C)=C/Cc1cc(O)ccc1O` [GERANYLGERANYLHYDROQUINONE]: the Activity in assay [1] is 36%; in assay [2], 52%; in assay [3], 85%; in assay [4], 74%; in assay [5] it was 61%; in assay [6], 86%. Moreover, the Activity in [7] came to 52%; in [8], 17%; in [9], 49%; in assay [10], 100%; in [11] it was 96%; in assay [12], 32%. In addition, the Activity in [13] is reported as 32%; in assay [14], 67%; in assay [15], 38%; in assay [16], 83%; in assay [17], 83%; in assay [18], 92%. Further, the Activity was found to be 55% in assay [19]; 100% in [20]; 42% in assay [21]; 20% in assay [22]; 95% in assay [23]; 91% in [24].
